Results: US20260033491A1, “FUNGAL SPORE FORMULATIONS INCLUDING CARRIER FLUIDS” (priority 2018, published 2026)
Like-named read-outs stand apart in the source and are kept apart here. Marks after values point to notes of the source that are not given here.

Legend:
Type in all cases: cell-based
[1] = tested on: Beauveria bassiana spores; experiment: Spore viability (germination rate) of Beauveria bassiana spores dispersed in fluid and stored at 30° C.
Protocol: (§1) 1.5 g of Beauveria bassiana pure spore powder were transferred into a formulation vessel (IKA Type DT-20 mixing vessel with dispersion tool for Ultra Turrax) using a sterile spoon. 13.5 mL of fluid were added into the respective formulation vessel and dispersed using ultra turrax tube drive control for 1 min at 3000 rpm; change direction after 30 sec. After this 2.8 mL were transferred in four sample bottles (Wheaton Serum vial, Type I) leaving little headspace and closed tight using crimpneck caps (Macherey—Nagel type N 13) Afterwards all sample bottles were transferred to an incubator set at 30° C. and stored for a given time.
(§2) In regular intervals a sample was retrieved from the storage location and analyzed for spore viability. Therefore the original samples were thoroughly homogenized. Aliquots of 0.25 g or 250 μL of each sample are transferred into 50 mL falcon tubes. The tubes were filled up to 25 g using a sterile aqueous solution containing 2% Tween 80 and homogenized by vortexing to achieve the first dilution step (1:100 dilution). This dilution was used for further dilution and spotting on agar.
(§3) For these samples, an alternative dispersion/dilution method was applied where the oil phase is stripped from the spores first: 0.25 g or 250 μL of sample are weighted into a 2 mL Eppendorf tube, and 0.5 mL of 2% Tween 80 is added, and the mixture is transferred into an Eppendorf centrifuge where it is centrifuged for 1 min at 10.000 rpm. The supernatant (=upper oily phase) is discarded by using a pipette. […] 250 μL or 0.25 g of each sample are transferred into a sterile 50 mL Falcon tube. The tubes were filled up to 25 g using a sterile aqueous solution containing 2% Tween 80 and homogenized by vortexing to achieve the first dilution step (1:100 dilution). This dilution is used for further dilution and spotting on agar.
(§4) For evaluation of spore germination rate prepare a 1:15000 dilution based on the 1:100 dilution achieved by multiple automated dilution (pipetting robot, 96 well plate). Afterwards 12×12 cm agar plates are taken and spotted with 10 times 5 μL of each sample using an automated 12-Channel pipet. Wait until liquid is soaked up by agar and transfer agar plate to an incubator and incubate at 20° C. for 17 hours. Open the plate and place it under the microscope. Randomly chose one area per spot and record the number of germinated and non-germinated spores that are within the designated field. At least 200 spores per sample need to be evaluated. If needed count more than one field per spot.

[2] = tested on: Purpureocillium lilacinum spores; experiment: Spore viability (germination rate) of Purpureocillium lilacinum spores dispersed in fluid and stored at 30° C.
Protocol: as §1, with “3” for “1.5”, “Purpureocillium lilacinum” for “Beauveria bassiana”, “12” for “13.5”, “13).” for “13)”
as §2, with “For this purpose,” for “Therefore”, “were” for “are”
as §3, with “oil phase was stripped from” for “oil phase is stripped from”, “each sample were transferred into” for “each sample are transferred into”, “This dilution was used for” for “This dilution is used for”
as §4, with “a 1:30000” for “a 1:15000”, “plates were” for “plates are”, “at 25°” for “at 20°”

[3] = tested on: Penicillium bilaii spores; experiment: Spore viability (germination rate) of Penicillium bilaii spores dispersed in fluid and stored at 30° C.
Protocol: as §1, with “Penicillium bilaii” for “Beauveria bassiana”
as §2
Not all samples mixed well or mixed at all in 2% Tween 80. For these samples, an alternative dispersion/dilution method was applied where the oil phase is stripped from the spores first: 0.25 g or 250 μL of sample are weighted into a 2 mL Eppendorf tube, and 0.5 mL of 2% Tween 80 is added, and the mixture is transferred into an Eppendorf centrifuge where it is centrifuged for 1 min at 10.000 rpm. The supernatant (=upper oily phase) is discarded by using a pipette. Afterwards 250 μL of Breakthru S 240 are added and the spores are well dispersed. 250 μL or 0.25 g of each sample are transferred into a sterile 50 mL Falcon tube. The tubes were filled up to 25 g using a sterile aqueous solution containing 2% Tween 80 and homogenized by vortexing to achieve the first dilution step (1:100 dilution). This dilution is used for further dilution and spotting on agar.
as §4

[4] = Beauveria bassiana spores in fluid, day 1
[5] = Beauveria bassiana spores in fluid, storage at 30° C., 14 d
[6] = Beauveria bassiana spores in fluid, storage at 30° C., 35 d
[7] = P. lilacinum spores in fluid, day 1
[8] = P. lilacinum spores in fluid, storage at 30° C., 35-40 d
[9] = P. lilacinum spores in fluid, storage at 30° C., 87-92 d
[10] = Penicillium bilaii spores in fluid, 1-2 d
[11] = Penicillium bilaii spores in fluid, storage at 30° C., 41-43 d
[12] = Penicillium bilaii spores in fluid, storage at 30° C., 83-85 d
[13] = P. lilacinum spores in fluid, storage at 30° C., 12-15 d
[14] = P. lilacinum spores in fluid, storage at 30° C., 27-28 d
[15] = P. lilacinum spores in fluid, storage at 30° C., 51-55 d
[16] = P. lilacinum spores in fluid, storage at 30° C., 7 m

CCCCOC(=O)CC(CC(=O)OCCCC)(OC(C)=O)C(=O)OCCCC [Acetyltributylcitrat, O-Acetyl citric acid tributyl ester]
spore viability [%] at day 1 [1, 4]: 85.5% | spore viability [%] after 2 w (14 d) [1, 5]: 76.7% | spore viability [%] after 5 w (35 d) [1, 6]: 58.8% | spore viability [%] at day 1 [2, 7]: 98.9% | spore viability [%] after 5-6 w (35-40 d) [2, 8]: 98.0% | spore viability [%] after 3 m (87-92 d) [2, 9]: 87.5% | spore viability [%] initial (1-2 d) [3, 10]: 98.4% | spore viability [%] 6 w@30° C. (41-43 d) [3, 11]: 83.8% | spore viability [%] 3 m@30° C. (83-85 d) [3, 12]: 60.6%

CC(C)CCCCCCOC(=O)C1CCCCC1C(=O)OCCCCCCC(C)C (stereo not drawn) [Agnique AE829, 1,2-Cyclohexane dicarboxylic acid diisononyl ester]
spore viability [%] at day 1 [1, 4]: 89.7% | spore viability [%] after 2 w (14 d) [1, 5]: 74.9% | spore viability [%] after 5 w (35 d) [1, 6]: 57.8% | spore viability [%] after 2 w (12-15 d) [2, 13]: 97.3% | spore viability [%] after 1 m (27-28 d) [2, 14]: 96.5% | spore viability [%] after 2 m (51-55 d) [2, 15]: 89.8% | spore viability [%] initial (1-2 d) [3, 10]: 95.3% | spore viability [%] 6 w@30° C. (41-43 d) [3, 11]: 89.4% | spore viability [%] 3 m@30° C. (83-85 d) [3, 12]: 71.9%

CC(C)OC(=O)CCCCC(=O)OC(C)C [Crodamol DA, Diisopropyl adipate]
spore viability [%] at day 1 [2, 7]: 98.2% | spore viability [%] taken after 7 m of storage [2, 16]: 51.3* % | spore viability [%] after 2 w (12-15 d) [2, 13]: 94.3% | spore viability [%] after 1 m (27-28 d) [2, 14]: 95.0% | spore viability [%] after 2 m (51-55 d) [2, 15]: 68.2%

CCCCCOC(=O)CC [Pentyl Propionate, Propionic acid Pentyl ester]
spore viability [%] at day 1 [2, 7]: 99.1% | spore viability [%] after 5-6 w (35-40 d) [2, 8]: 94.6% | spore viability [%] after 3 m (87-92 d) [2, 9]: 16.1%

CCCCCC[C@@H](O)C/C=C\CCCCCCCC(=O)OC [Radia 7081, Ricinolic acid methylester]
spore viability [%] after 1 m (27-28 d) [2]: 95.8% | spore viability [%] after 2 m (51-55 d) [2]: 88.6% | spore viability [%] after 2 w (12-15 d) [2]: 94.7%

CCCCCCCCCCCC(=O)OCC(CC)CCCC (stereo not drawn) [Radia 7127, 2-Ethylhexyl laurate]
spore viability [%] at day 1 [1, 4]: 91.3% | spore viability [%] after 2 w (14 d) [1, 5]: 76.3% | spore viability [%] after 5 w (35 d) [1, 6]: 68.4% | spore viability [%] at day 1 [2, 7]: 99.1% | spore viability [%] taken after 7 m of storage [2, 16]: 40.6* % | spore viability [%] after 2 w (12-15 d) [2, 13]: 99.0% | spore viability [%] after 1 m (27-28 d) [2, 14]: 98.3% | spore viability [%] after 2 m (51-55 d) [2, 15]: 88.4% | spore viability [%] initial (1-2 d) [3, 10]: 97.1% | spore viability [%] 6 w@30° C. (41-43 d) [3, 11]: 96% | spore viability [%] 3 m@30° C. (83-85 d) [3, 12]: 77.9%

CCCCCCCC/C=C\CCCCCCCC(=O)OCC(CC)CCCC (stereo not drawn) [Radia 7331, 2-Ethylhexyl oleate]
spore viability [%] at day 1 [1, 4]: 91.5% | spore viability [%] after 2 w (14 d) [1, 5]: 81.4% | spore viability [%] after 5 w (35 d) [1, 6]: 66.3% | spore viability [%] after 2 w (12-15 d) [2, 13]: 97.9% | spore viability [%] after 1 m (27-28 d) [2, 14]: 95.9% | spore viability [%] after 2 m (51-55 d) [2, 15]: 85.9% | spore viability [%] initial (1-2 d) [3, 10]: 97.1% | spore viability [%] 6 w@30° C. (41-43 d) [3, 11]: 91.4% | spore viability [%] 3 m@30° C. (83-85 d) [3, 12]: 75.7%

CCCCCCCC/C=C\CCCCCCCC(=O)OCC(CC)CCCC (stereo not drawn) [Radialube 7130, 2-Ethylhexyl oleate]
spore viability [%] after 2 w (12-15 d) [2, 13]: 98.5% | spore viability [%] after 1 m (27-28 d) [2, 14]: 94.3% | spore viability [%] after 2 m (51-55 d) [2, 15]: 87.9%

Fatty acid monoglyceride diacetate [Radia 7909]
spore viability [%] after 2 w (14 d) [1]: 11.5% | spore viability [%] after 5 w (35 d) [1]: 18.1% | spore viability [%] at day 1 [1]: 75.1% | spore viability [%] after 3 m (87-92 d) [2]: 78.5% | spore viability [%] after 5-6 w (35-40 d) [2]: 96.5% | spore viability [%] at day 1 [2]: 98.1% | spore viability [%] 3 m@30° C. (83-85 d) [3]: 42.0% | spore viability [%] 6 w@30° C. (41-43 d) [3]: 75.6% | spore viability [%] initial (1-2 d) [3]: 90.6%

Neopentylglycol dicocoate [Radialube 7302]
spore viability [%] after 5 w (35 d) [1]: 52.7%

Sorbitan trioleate [Radiasurf 7355]
spore viability [%] after 2 w (14 d) [1]: 71.3% | spore viability [%] after 5 w (35 d) [1]: 60.4% | spore viability [%] after 3 m (87-92 d) [2]: 64.1% | spore viability [%] after 5-6 w (35-40 d) [2]: 96.4% | spore viability [%] at day 1 [2]: 98.3%

Trimethylolpropane Tricocoate [Radialube 7359]
spore viability [%] after 1 m (27-28 d) [2]: 87.8% | spore viability [%] after 2 m (51-55 d) [2]: 87.5% | spore viability [%] after 2 w (12-15 d) [2]: 60.6^# % | spore viability [%] at day 1 [2]: 58.0^# % | spore viability [%] taken after 7 m of storage [2]: 87.3* %

Trimethylolpropane Triisostearate [Radia 7380]
spore viability [%] after 2 w (12-15 d) [2, 13]: 96.5% | spore viability [%] after 1 m (27-28 d) [2, 14]: 89.3% | spore viability [%] after 2 m (51-55 d) [2, 15]: 86.0%

Trimethylolpropane Trioleate [Radialube 7361]
spore viability [%] after 2 w (12-15 d) [2, 13]: 97.2% | spore viability [%] after 1 m (27-28 d) [2, 14]: 92.3% | spore viability [%] after 2 m (51-55 d) [2, 15]: 85.4%
